Reference: patent publication US10617701B2, “Nutritional compositions containing phosphatidylethanolamine, sphingomyelin and docosahexaenoic acid” (Mead Johnson Nutrition Company, priority 2015, dated 2020)

What was measured:
[1] = tested on: embryonic mouse cortical cells; experiment: Immunocytochemistry / fluorescence image analysis of neuronal network morphology (neuron number, % neurons, synaptic density); format: cell-based; details: chronic treatment over 4 weeks
Experimental: Primary Cell culture for immunocytochemistry and Fluorescence staining: The chronically treated cultures were grown on 24-well plates on 13 mm glass cover slides and cultured with PNGM medium including 5% FCS and gentamycin+ampicillin. The cells were treated 2× per week during ⅓ medium exchange. The complete concentration of phospholipids was replenished every time.
Immunocytochemistry and Fluorescence staining: These 24 well-plate cultures were analyzed by immunocytochemistry, fluorescence microscopy and semiautomatic quantitative image analysis at 7, 14, 21, and 28 days. […] Cortical networks were embedded with Prolong anti-fade gold (Invitrogen, Darmstadt, Germany) and images acquired with an upright fluorescence microscope (Nikon Eclipse TE200, NikonAG, Tokyo, Japan).
Image analysis: These images were analyzed by semi-automatic image quantification tools (MS Excel macro-based in house analyses; ImageJ, Rawak Software, NIH, USA). […]
The repeated treatment with LF+PE+SM+DHA affects development of neuronal network morphology: The recorded networks were fixed after the final 28 div recording and immunostained for neuronal markers. Images were taken and the cell neuronal numbers quantified by semi-automatic image analyses.

[2] = tested on: embryonic mouse cortical cells; experiment: Functional neuronal maturation of cortical networks on microelectrode arrays (MEA recording, chronic treatment); format: cell-based; details: for acute effect on neuronal network activity in vitro: cortical networks on MEAs
Experimental: Cortical cells were grown on multi-well microelectrode arrays (MEAs) and treated with 10 different experimental series, including different combinations of test agents (PE, SM, LF and DHA) and the activity was recoded at 4 different time points during the 4 weeks of functional neuronal maturation Cells growing on glass slides were treated in parallel for morphological and cell population analysis. These experiments aimed to elucidate whether the test compounds affect the functional and morphological neuronal maturation […] (see FIG. 1).
All experiments were performed according to the standard operating protocols (SOPs): “SOP Preparation Frontal Cortex Mouse—Serum,” “SOP Solutions for Neuronal Cell Culture,” “SOP Cleaning and Substrate Preparations of MEAs,” “SOP Feeding neuronal cell culture,” “SOP Cell culture preparation MEAs,” “SOP Plexon Recording,” “SOP Plexon Data Analysis.”
Microelectrode Array Neurochips: THE MEA neurochips were provided by the Center for Network Neuroscience (CNNS) at the University of North Texas. These 5×5 cm^2 glass chips have a dual recording matrix with 32 passive electrodes per matrix and indium tin oxide conductors. The hydrophobic insulation material surface was activated by a brief butane flame pulse through a stainless steel mask. Thus, cell attachment on a confined adhesive region (5 mm diameter centered on the electrode array) is ensured. The activated surface regions were coated with poly-D-lysine (25 microgram/mL; 30-70 kD) and incubated overnight. […]
Primary cell culture for MEA recordings: In brief, frontal cortex tissue was harvested from embryonic day […] NMRI mice. […] Cultures on MEAs were incubated at 37° C. in a 10% CO2 atmosphere until ready for use, which usually is four weeks to three months after seeding. […]
Multichannel Recording: After establishing a stable activity pattern after 4 weeks, the neuronal networks on MEA chips are employed for substance testing. […] The signals routinely recorded by these neurochips are located in a range of 15-1800 […] . […]

Row | Substance | synaptic density [1] | acute effect on neuronal network activity in vitro [2] | developmental halt at later stages ([2]; repeated treatment 2x per week, DHA 20 μM, PE 100 nM, LF 300 nM, SM 100 nM, recorded at 7-10, 14, 21 and 28 div, FIG. 2)
1 | sphingomyelin [SM] | able to increase the synaptic density | acutely affect neuronal network activity | developmental halt at later stages
2 | phosphatidylethanolamine [PE] | – | acutely affect neuronal network activity | –
